This passage reports Activity and MIC results from ChEMBL document CHEMBL1157225, “Highly N-methylated linear peptides produced by an atypical sponge-derived Acremonium sp” (2006).

One may read the MIC as the smallest concentration in the dilution series that meets the test's criterion for growth inhibition.

In test [1] the test system is L1210. Nature of the test: Cytotoxicity against mouse L1210 cells relative to efrapeptin G. The format is functional.
Test [2] relates to Staphylococcus epidermidis. Description: Antimicrobial activity against Staphylococcus epidermidis. The test is classed as functional.
Setting [3] is: Staphylococcus epidermidis, read-out: MIC.

Values after ≈ are worked out from the molar mass of the structure shown. Where a SMILES comes first, the peptide text is derived from it. [ ]: non-standard residue; d: D form. The star is where a group is joined. X1 = CC(C)C[C@@H](C[N+]1=C2CCCN2CCC1)N*; Pip = O=C(O)[C@@H]1CCCCN1; Iva = CC[C@](C)(N)C(=O)O; Aib = CC(C)(N)C(=O)O; βAla = NCCC(=O)O A value given as a limit tells only on which side of the number the result lay.

Regarding `CC[C@H](C)[C@H](NC(=O)[C@H](C(C)C)N(C)C(=O)[C@H](CC(C)C)N(C)C(=O)[C@@H](NC(=O)[C@@H](CCC(N)=O)NC(C)=O)C(C)C)C(=O)N(C)[C@H](C(=O)N(C)[C@H](C(=O)N(C)[C@H](C(=O)O)[C@@H](C)CC)[C@@H](C)CC)[C@@H](C)CC`, in test [1], the Activity is recorded as 1. For the same compound, in test [2] (setting [3]), the MIC was over 400 µg/mL.
Consider `CN[C@H](CC(C)C)C(=O)N[C@H]1C(=O)N[C@@H](CC(N)=O)C(=O)N[C@H]2C(=O)N[C@H]3C(=O)N[C@H](C(=O)N[C@H](C(=O)O)c4cc(O)cc(O)c4-c4cc3ccc4O)[C@H](O)c3ccc(c(Cl)c3)Oc3cc2cc(c3O[C@@H]2O[C@H](CO)[C@@H](O)[C@H](O)[C@H]2O[C@H]2C[C@](C)(N)[C@H](O)[C@H](C)O2)Oc2ccc(cc2Cl)[C@H]1O` [VANCOMYCIN], for which, in test [2] (setting [3]), the MIC was 0.63 µg/mL (≈ 0.435 µM).
Turning to `CC[C@H](C)[C@H](NC(=O)[C@H](CC(C)C)N(C)C(=O)[C@@H](NC(=O)[C@@H](CCC(N)=O)NC(C)=O)[C@@H](C)CC)C(=O)N(C)[C@H](C(=O)N(C)[C@H](C(=O)N(C)[C@H](C(=O)N(C)[C@H](C(=O)O)[C@@H](C)CC)[C@@H](C)CC)[C@@H](C)CC)C(C)C`, the MIC was 50 µg/mL (≈ 48.2 µM) in test [2] and 25 µg/mL (≈ 24.1 µM) in test [2] (setting [3]).
With `CC[C@](C)(NC(=O)[C@H](CC(C)C)NC(=O)[C@H](C)NC(=O)C(C)(C)NC(=O)[C@@H]1CCCCN1C(=O)C(C)(C)NC(=O)C(C)(C)NC(=O)CNC(=O)CCNC(=O)[C@H](CC(C)C)NC(=O)C(C)(C)NC(=O)[C@](C)(CC)NC(=O)[C@@H]1CCCCN1C(=O)C(C)(C)NC(=O)[C@@H]1CCCCN1C(C)=O)C(=O)N[C@@H](CC(C)C)C[N+]1=C2CCCN2CCC1` [EFRAPEPTIN G] (Ac-[Pip][Aib][Pip][Iva][Aib]L[βAla]G[Aib][Aib][Pip][Aib]AL[Iva]-X1), in test [1], the Activity amounted to 3300. In addition, the MIC in test [2] (setting [3]) was found to be 80 µg/mL.
